The text below walks through data of ChEMBL document CHEMBL6127128, “Discovery of the First-in-Class Dual-Target ROCK/HDAC Inhibitor with Potent Antitumor Efficacy in Vivo That Trigger Antitumor Immunity” (J Med Chem, 2024).

Active and inactive are the calls of the source. No cut-off for these calls is given here.

Series [1] in a line: Tmax in Balb/c mouse at 1 mg/kg, iv measured for 24 hrs by LC-MS/MS analysis. Format: ADME, organism-based. The conditions noted are these: in vivo.
The nature of series [2]: Toxicity against Balb/c mouse implanted with mouse 4T1 cells assessed as effect on morphological changes in heart at 25 to 50 mg/kg, po administered daily for 15 days by Hematoxylin-Eosin staining based analysis. Type of series: organism-based. The conditions noted are these: in vivo, 360 h, dose 25-50 mg/kg, time 15 day.
The target in another series is Histone deacetylase 2 (Homo sapiens, UniProt Q92769). In words: Inhibition of HDAC2 (unknown origin) using Ac-Leu-Gly-Lys(Ac)-AMC as substrate preincubated for 5 mins followed by substrate addition for 30 mins and measured following trypsin addition for 30 mins by fluorescence based analysis.
Chain of Histone deacetylase 2 (Q92769 whole entry): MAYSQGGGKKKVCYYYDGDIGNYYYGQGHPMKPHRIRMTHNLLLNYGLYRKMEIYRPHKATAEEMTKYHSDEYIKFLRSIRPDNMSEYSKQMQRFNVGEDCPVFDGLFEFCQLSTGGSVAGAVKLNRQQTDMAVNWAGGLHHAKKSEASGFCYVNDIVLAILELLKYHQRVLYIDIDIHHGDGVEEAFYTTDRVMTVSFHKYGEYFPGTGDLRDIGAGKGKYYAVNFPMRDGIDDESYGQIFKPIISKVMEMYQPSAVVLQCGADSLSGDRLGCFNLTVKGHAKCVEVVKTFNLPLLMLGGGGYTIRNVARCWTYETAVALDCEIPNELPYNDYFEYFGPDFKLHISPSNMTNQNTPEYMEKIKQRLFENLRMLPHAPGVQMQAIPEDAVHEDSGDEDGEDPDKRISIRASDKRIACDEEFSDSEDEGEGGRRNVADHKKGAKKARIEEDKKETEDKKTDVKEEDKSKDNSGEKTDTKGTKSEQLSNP
For series [3], the system named is 4T1. In words: Antitumor immunity against mouse 4T1 cells implanted in Balb/c mouse assessed as increase in CD8+ T cells in tumor tissue at 25 mg/kg, po administered daily for 15 days by flow cytometry. Type of series: functional, organism-based. The settings on record: time 15.0 day. (A flow cytometer gives signals particle by particle.)
Series [4] in a line: Toxicity against Balb/c mouse implanted with mouse 4T1 cells assessed as effect on morphological changes in liver at 25 to 50 mg/kg, po administered daily for 15 days by Hematoxylin-Eosin staining based analysis. Type of series: organism-based. The settings on record: in vivo, 360 h, dose 25-50 mg/kg, time 15 day.
Series [5] relates to 4T1. The series can be described thus: Antitumor immunity against mouse 4T1 cells implanted in Balb/c mouse assessed as increase in CD3+ T cells in tumor tissue at 25 mg/kg, po administered daily for 15 days by flow cytometry. The conditions noted are these: time 15.0 day. Type of series: functional, organism-based.
The test system of a further series is Mus musculus. The series can be described thus: Induction of immunogenic cell death-associated DAMP release in tumor of Balb/c mouse implanted with mouse 4T1 cells assessed as extranuclear diffusion of HMGB1 by measuring decrease in red fluorescence aggregates at 25 to 50 mg/kg, po administered daily for 15 days by immunofluorescence analysis. Type of series: functional, organism-based. The settings on record: dose 25-50 mg/kg, time 15.0 day.

Series [6] deals with 4T1. In words: Antitumor immunity against mouse 4T1 cells implanted in Balb/c mouse assessed as increase in CD4+ T cells in tumor tissue at 25 mg/kg, po administered daily for 15 days by flow cytometry. Format: functional, organism-based. The settings on record: time 15.0 day.
Series [7] is described as follows: AUC (0 to infinity) in Balb/c mouse at 1 mg/kg, iv measured for 24 hrs by LC-MS/MS analysis. Format: ADME, organism-based. The settings on record: in vivo.
Series [8] relates to MDA-MB-231. The series can be described thus: Induction of immunogenic cell death-associated DAMP release in human MDA-MB-231 cells assessed as increase in extracellular HMGB1 release by mesuring increase in HMGB1 level in medium supernatant at 10 uM incubated for 24 hrs by ELISA. Type of series: functional, cell-based. (ELISA stands for enzyme-linked immunosorbent assay.)
For series [9], the system named is 4T1. The series can be described thus: Antitumor activity against mouse 4T1 cells implanted in Balb/c mouse assessed as tumor weight at 50 mg/kg, po administered daily for 15 days. The conditions noted are these: time 15 day. Format: functional.
Series [10] relates to MDA-MB-231. The series can be described thus: Cytotoxicity against human MDA-MB-231 cells assessed as reduction in cell viability incubated for 72 hrs by SRB assay. The conditions noted are these: MDA-MB-231, 72 h. Format: functional, cell-based. (In general: Sulforhodamine B stains cellular protein and so reports cell mass.)
In series [11] the test system is 4T1. The series can be described thus: Antitumor immunity against mouse 4T1 cells implanted in Balb/c mouse assessed as increase in CD4+ T cells in tumor tissue at 50 mg/kg, po administered daily for 15 days by flow cytometry relative to SAHA. Type of series: functional. The settings on record: time 15 day.
In series [12] the test system is 4T1. The series can be described thus: animal or person. Format: functional. The conditions noted are these: Mus musculus, 4T1, 360 h, route po, time 15 day, read-out: TGI.
Description: Antitumor activity against mouse 4T1 cells implanted in Balb/c mouse assessed as inhibition of tumor growth rate at 50 mg/kg, po administered daily for 15 days
Series [13] is described as follows: Toxicity against Balb/c mouse implanted with mouse 4T1 cells assessed as effect on morphological changes in lung at 25 to 50 mg/kg, po administered daily for 15 days by Hematoxylin-Eosin staining based analysis. Format: organism-based. The conditions noted are these: in vivo, 360 h, dose 25-50 mg/kg, time 15 day.
The nature of series [14]: Toxicity against Balb/c mouse implanted with mouse 4T1 cells assessed as effect on body weight changes at 25 to 50 mg/kg, po administered daily for 15 days. Type of series: organism-based. The settings on record: in vivo, 360 h, dose 25-50 mg/kg, time 15 day.
A further series concerns the target T1, Histone deacetylase 8 (Homo sapiens, UniProt Q9BY41).
T1 sequence (Q9BY41 whole entry): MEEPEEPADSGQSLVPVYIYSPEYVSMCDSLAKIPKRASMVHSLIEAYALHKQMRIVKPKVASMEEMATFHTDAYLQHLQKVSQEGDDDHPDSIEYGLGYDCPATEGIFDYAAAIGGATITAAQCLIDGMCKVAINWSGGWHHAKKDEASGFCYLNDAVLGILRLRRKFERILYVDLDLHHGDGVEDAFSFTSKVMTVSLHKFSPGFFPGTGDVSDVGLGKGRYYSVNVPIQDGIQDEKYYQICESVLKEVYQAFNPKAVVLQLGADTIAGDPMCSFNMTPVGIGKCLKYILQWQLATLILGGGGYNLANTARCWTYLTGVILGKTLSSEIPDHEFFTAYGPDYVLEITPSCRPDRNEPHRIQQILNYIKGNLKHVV
In words: Inhibition of HDAC8 (unknown origin) using Ac-Leu-Gly-Lys(tfa)-AMC as substrate preincubated for 5 mins followed by substrate addition for 30 mins and measured following trypsin addition for 30 mins by fluorescence based analysis.

For series [15], the system named is MDA-MB-231. In words: Induction of immunogenic cell death-associated DAMP release in human MDA-MB-231 cells assessed as increase in CRT expression level at 1 to 10 uM incubated for 24 hrs by western blot analysis. Format: functional, cell-based. The conditions noted are these: dose 1-10 µM.
Series [16] can be described thus: AUC (0 to infinity) in Balb/c mouse at 50 mg/kg, po measured for 24 hrs by LC-MS/MS analysis. Format: ADME, organism-based. The conditions noted are these: in vivo.

`O=C(CCCCCCNC(=O)c1cc2cc(-c3cn[nH]c3)ccc2s1)NO`: the Tmax in series [1] stood at 4.8 min. The Activity entry is recorded as “Non-Toxic” in [2]; “Non-Toxic” in [4]; 0.16 g in the series with 4T1 [9]; “Non-Toxic” in [13]; “Non-Toxic” in series [14]. The IC50 was found to be 8.03 nM at Histone deacetylase 2, 370 nM in the series on MDA-MB-231 [10] and 7.69 nM at Histone deacetylase 8. The result with 4T1 [3], in the series on 4T1 [5], in the series on Mus musculus, with 4T1 [6], with MDA-MB-231 [8] and in the series on MDA-MB-231 [15] was Active. In addition, the AUC(0-inf) in series [7] was determined as 89.3 ng·h/mL; in series [16] it was 5.95 ng·h/mL. The “fold change (FC)” value in the series with 4T1 [11] is on record as 1.82. Besides, the inhibition in vivo at 50 mg/kg in the series with 4T1 [12] worked out at 69.4%.

By Tmax is commonly meant the time from dosing to the highest level. In general, IC50 refers to the concentration that gives 50% inhibition. By AUC(0-inf) is commonly meant the area under the concentration-time curve extrapolated to infinity.
